≈ marks a conversion by molar mass, not a printed value.
Tests used:
[1] = system: Streptococcus pneumoniae; experiment: Antibacterial activity against Streptococcus pneumoniae CIP104485 by agar disk diffusion method; type: functional, CIP1044
[2] = system: Streptococcus pneumoniae; experiment: Antibacterial activity against Streptococcus pneumoniae U2A1681 harboring parC Ser79Tyr Asp83Ala mutant gene by agar disk diffusion method; type: functional
[3] = system: Streptococcus pneumoniae; experiment: Antibacterial activity against Streptococcus pneumoniae U2A1060 harboring gyrA Ser81Phe parC Asp83His mutant gene by agar disk diffusion method; type: functional
[4] = system: Streptococcus pneumoniae; experiment: Antibacterial activity against Streptococcus pneumoniae U2A1686 harboring gyrA Glu85Lys mutant gene by agar disk diffusion method; type: functional
[5] = system: Streptococcus pneumoniae; experiment: Antibacterial activity against Streptococcus pneumoniae U2A1053 harboring parC Ser79Phe mutant gene by agar disk diffusion method; type: functional
[6] = system: Streptococcus pneumoniae; experiment: Antibacterial activity against Streptococcus pneumoniae U2A1413 harboring parC Ser79Tyr mutant gene by agar disk diffusion method; type: functional
[7] = system: Streptococcus pneumoniae; experiment: Antibacterial activity against Streptococcus pneumoniae U2A1693 harboring parC Asp83Asn mutant gene by agar dilution method; type: functional
[8] = system: Streptococcus pneumoniae; experiment: Antibacterial activity against Streptococcus pneumoniae CIP104485 by agar dilution method; type: functional; settings: CIP1044
[9] = system: Streptococcus pneumoniae; experiment: Antibacterial activity against Streptococcus pneumoniae U2A1693 harboring parC Asp83Asn mutant gene by agar disk diffusion method; type: functional
[10] = system: Streptococcus pneumoniae; experiment: Antibacterial activity against Streptococcus pneumoniae U2A1414 harboring gyrA Glu85Lys parC Ser79Phe mutant gene by agar dilution method; type: functional
[11] = system: Streptococcus pneumoniae; experiment: Antibacterial activity against Streptococcus pneumoniae R6 Tr10 harboring gyrA Ser81Tyr parC Ser79Tyr mutant gene by agar disk diffusion method; type: functional
[12] = system: Streptococcus pneumoniae; experiment: Antibacterial activity against Streptococcus pneumoniae U2A1266 harboring gyrA Ser81Cys mutant gene by agar disk diffusion method; type: functional
[13] = system: Streptococcus pneumoniae; experiment: Antibacterial activity against Streptococcus pneumoniae R6 Tr1 harboring parC Ser79Tyr mutant gene by agar dilution method; type: functional
[14] = system: Streptococcus pneumoniae; experiment: Antibacterial activity against Streptococcus pneumoniae R6 Tr1 harboring parC Ser79Tyr mutant gene by agar disk diffusion method; type: functional
[15] = system: Streptococcus pneumoniae; experiment: Antibacterial activity against Streptococcus pneumoniae R6 by agar disk diffusion method; type: functional
[16] = system: Streptococcus pneumoniae; experiment: Antibacterial activity against Streptococcus pneumoniae U2A1266 harboring gyrA Ser81Cys mutant gene by agar dilution method; type: functional
[17] = system: Streptococcus pneumoniae; experiment: Antibacterial activity against Streptococcus pneumoniae U2A1050 harboring gyrA Ser81Phe mutant gene by agar dilution method; type: functional
[18] = system: Streptococcus pneumoniae; experiment: Antibacterial activity against Streptococcus pneumoniae U2A1686 harboring gyrA Glu85Lys mutant gene by agar dilution method; type: functional
[19] = system: Streptococcus pneumoniae; experiment: Antibacterial activity against Streptococcus pneumoniae U2A1051 harboring gyrA Ser81Tyr mutant gene by agar dilution method; type: functional
[20] = system: Streptococcus pneumoniae; experiment: Antibacterial activity against Streptococcus pneumoniae CP1000 by agar disk diffusion method; type: functional
[21] = system: Streptococcus pneumoniae; experiment: Antibacterial activity against Streptococcus pneumoniae R6 Tr6 harboring gyrA Ser81Phe mutant gene by agar disk diffusion method; type: functional
[22] = system: Streptococcus pneumoniae; experiment: Antibacterial activity against Streptococcus pneumoniae U2A1050 harboring gyrA Ser81Phe mutant gene by agar disk diffusion method; type: functional
[23] = system: Streptococcus pneumoniae; experiment: Antibacterial activity against Streptococcus pneumoniae R6 by agar dilution method; type: functional
[24] = system: Streptococcus pneumoniae; experiment: Antibacterial activity against Streptococcus pneumoniae U2A1411 harboring parC Asp83Gly mutant gene by agar dilution method; type: functional
[25] = system: Streptococcus pneumoniae; experiment: Antibacterial activity against Streptococcus pneumoniae U2A1056 harboring gyrA Ser81Tyr parC Asp83His mutant gene by agar dilution method; type: functional
[26] = system: Streptococcus pneumoniae; experiment: Antibacterial activity against Streptococcus pneumoniae U2A1414 harboring gyrA Glu85Lys parC Ser79Phe mutant gene by agar disk diffusion method; type: functional
[27] = system: Streptococcus pneumoniae; experiment: Antibacterial activity against Streptococcus pneumoniae CP1000 by agar dilution method; type: functional
[28] = system: Streptococcus pneumoniae; experiment: Antibacterial activity against Streptococcus pneumoniae R6 Tr6 harboring gyrA Ser81Phe mutant gene by agar dilution method; type: functional
[29] = system: Streptococcus pneumoniae; experiment: Antibacterial activity against Streptococcus pneumoniae U2A1411 harboring parC Asp83Gly mutant gene by agar disk diffusion method; type: functional
[30] = system: Streptococcus pneumoniae; experiment: Antibacterial activity against Streptococcus pneumoniae U2A1053 harboring parC Ser79Phe mutant gene by agar dilution method; type: functional
[31] = system: Streptococcus pneumoniae; experiment: Antibacterial activity against Streptococcus pneumoniae U2A1051 harboring gyrA Ser81Tyr mutant gene by agar disk diffusion method; type: functional
[32] = system: Streptococcus pneumoniae; experiment: Antibacterial activity against Streptococcus pneumoniae U2A1413 harboring parC Ser79Tyr mutant gene by agar dilution method; type: functional
[33] = system: Streptococcus pneumoniae; experiment: Antibacterial activity against Streptococcus pneumoniae U2A1681 harboring parC Ser79Tyr Asp83Ala mutant gene by agar dilution method; type: functional
[34] = system: Streptococcus pneumoniae; experiment: Antibacterial activity against Streptococcus pneumoniae U2A1056 harboring gyrA Ser81Tyr parC Asp83His mutant gene by agar disk diffusion method; type: functional
[35] = system: Streptococcus pneumoniae; experiment: Antibacterial activity against Streptococcus pneumoniae R6 Tr10 harboring gyrA Ser81Tyr parC Ser79Tyr mutant gene by agar dilution method; type: functional
[36] = system: Streptococcus pneumoniae; experiment: Antibacterial activity against Streptococcus pneumoniae H548 clinical isolate harboring gyrA Ser81Phe mutant gene by agar disk diffusion method; type: functional
[37] = system: Streptococcus pneumoniae; experiment: Antibacterial activity against Streptococcus pneumoniae U2A1060 harboring gyrA Ser81Phe parC Asp83His mutant gene by agar dilution method; type: functional

SMILES | diameter of the inhibition zone (DIZ) [1] | diameter of the inhibition zone (DIZ) [2] | diameter of the inhibition zone (DIZ) [3] | diameter of the inhibition zone (DIZ) [4] | diameter of the inhibition zone (DIZ) [5] | diameter of the inhibition zone (DIZ) [6] | MIC [8] | diameter of the inhibition zone (DIZ) [9] | MIC [10] | diameter of the inhibition zone (DIZ) [11] | diameter of the inhibition zone (DIZ) [12] | MIC [13] | diameter of the inhibition zone (DIZ) [14] | diameter of the inhibition zone (DIZ) [15] | diameter of the inhibition zone (DIZ) [20] | diameter of the inhibition zone (DIZ) [21] | diameter of the inhibition zone (DIZ) [22] | diameter of the inhibition zone (DIZ) [26] | diameter of the inhibition zone (DIZ) [29] | diameter of the inhibition zone (DIZ) [31] | also measured
COc1c(N2C[C@@H]3CCCN[C@@H]3C2)c(F)cc2c(=O)c(C(=O)O)cn(C3CC3)c12 [MOXIFLOXACIN] | 26 mm | 12 mm | 18 mm | 27 mm | 26 mm | 31 mm | 0.125 µg/mL (≈ 0.311 µM) | 27 mm | 8 µg/mL (≈ 19.9 µM) | 18 mm | 26 mm | 0.5 µg/mL (≈ 1.25 µM) | 28 mm | 26 mm | 28 mm | 24 mm | 25 mm | 17 mm | 25 mm | 25 mm | MIC [7]: 0.5 µg/mL (≈ 1.25 µM); MIC [16]: 0.5 µg/mL (≈ 1.25 µM); MIC [17]: 1 µg/mL (≈ 2.49 µM); MIC [18]: 0.5 µg/mL (≈ 1.25 µM); MIC [19]: 1 µg/mL (≈ 2.49 µM); MIC [23]: 0.125 µg/mL (≈ 0.311 µM); MIC [24]: 0.5 µg/mL (≈ 1.25 µM); MIC [25]: 2 µg/mL (≈ 4.98 µM); MIC [27]: 0.25 µg/mL (≈ 0.623 µM); MIC [28]: 0.5 µg/mL (≈ 1.25 µM); MIC [30]: 0.25 µg/mL (≈ 0.623 µM); MIC [32]: 0.25 µg/mL (≈ 0.623 µM); MIC [33]: 8 µg/mL (≈ 19.9 µM)
C[C@@H]1CN(c2c(F)c(N)c3c(=O)c(C(=O)O)cn(C4CC4)c3c2F)C[C@H](C)N1 [SPARFLOXACIN] | 24 mm | 6 mm | 11 mm | 24 mm | 25 mm | 28 mm | 0.25 µg/mL (≈ 0.637 µM) | 24 mm | > 32 µg/mL | 12 mm | 23 mm | 1 µg/mL (≈ 2.55 µM) | 25 mm | 23 mm | 26 mm | 23 mm | 22 mm | 6 mm | 19 mm | 22 mm | diameter of the inhibition zone (DIZ) [34]: 11 mm; MIC [35]: 16 µg/mL (≈ 40.8 µM); MIC [16]: 1 µg/mL (≈ 2.55 µM); MIC [17]: 2 µg/mL (≈ 5.1 µM); MIC [18]: 2 µg/mL (≈ 5.1 µM); MIC [19]: 2 µg/mL (≈ 5.1 µM); diameter of the inhibition zone (DIZ) [36]: 20 mm; MIC [23]: 0.25 µg/mL (≈ 0.637 µM); MIC [25]: 8 µg/mL (≈ 20.4 µM); MIC [27]: 0.25 µg/mL (≈ 0.637 µM); MIC [37]: 16 µg/mL (≈ 40.8 µM); MIC [28]: 1 µg/mL (≈ 2.55 µM); MIC [30]: 0.25 µg/mL (≈ 0.637 µM); MIC [32]: 0.25 µg/mL (≈ 0.637 µM); MIC [33]: 32 µg/mL (≈ 81.5 µM)
CCn1cc(C(=O)O)c(=O)c2ccc(C)nc21 [NALIDIXIC ACID] | 6 mm | 6 mm | 14 mm | 6 mm | 13 mm | 6 mm | – | 6 mm | – | 6 mm | 6 mm | – | 6 mm | 6 mm | 6 mm | 6 mm | 6 mm | 6 mm | 6 mm | 8 mm | diameter of the inhibition zone (DIZ) [34]: 6 mm; diameter of the inhibition zone (DIZ) [36]: 6 mm
CCn1cc(C(=O)O)c(=O)c2cc(F)c(N3CCN(C)CC3)cc21 [PEFLOXACIN] | 18 mm | – | – | 23 mm | 13 mm | 13 mm | 8 µg/mL (≈ 24 µM) | – | > 128 µg/mL | – | 17 mm | 64 µg/mL (≈ 192 µM) | – | 17 mm | 21 mm | 19 mm | 18 mm | – | – | 20 mm | MIC [7]: 64 µg/mL (≈ 192 µM); MIC [35]: > 128 µg/mL; MIC [16]: 16 µg/mL (≈ 48 µM); MIC [17]: 16 µg/mL (≈ 48 µM); MIC [18]: 8 µg/mL (≈ 24 µM); MIC [19]: 16 µg/mL (≈ 48 µM); MIC [23]: 8 µg/mL (≈ 24 µM); MIC [24]: 64 µg/mL (≈ 192 µM); MIC [25]: 64 µg/mL (≈ 192 µM); MIC [27]: 4 µg/mL (≈ 12 µM); MIC [37]: 128 µg/mL (≈ 384 µM); MIC [28]: 8 µg/mL (≈ 24 µM); MIC [30]: 128 µg/mL (≈ 384 µM); MIC [32]: 32 µg/mL (≈ 96 µM); MIC [33]: > 128 µg/mL
C[C@H]1COc2c(N3CCN(C)CC3)c(F)cc3c(=O)c(C(=O)O)cn1c23.C[C@H]1COc2c(N3CCN(C)CC3)c(F)cc3c(=O)c(C(=O)O)cn1c23.O [LEVOFLOXACIN] | 22 mm | 6 mm | 6 mm | 26 mm | 22 mm | 22 mm | – | 19 mm | > 32 µg/mL | 6 mm | 21 mm | – | 21 mm | 21 mm | 24 mm | 23 mm | 19 mm | 6 mm | 15 mm | 22 mm | diameter of the inhibition zone (DIZ) [34]: 12 mm; diameter of the inhibition zone (DIZ) [36]: 6 mm
O=C(O)c1cn(C2CC2)c2cc(N3CCNCC3)c(F)cc2c1=O [CIPROFLOXACIN] | 25 mm | 6 mm | 6 mm | 25 mm | 19 mm | 24 mm | 1 µg/mL (≈ 3.02 µM) | – | > 32 µg/mL | 6 mm | 23 mm | 2 µg/mL (≈ 6.04 µM) | 19 mm | 21 mm | 23 mm | 21 mm | 23 mm | 6 mm | 10 mm | 22 mm | diameter of the inhibition zone (DIZ) [34]: 6 mm; MIC [35]: > 32 µg/mL; MIC [16]: 2 µg/mL (≈ 6.04 µM); MIC [17]: 2 µg/mL (≈ 6.04 µM); MIC [18]: 1 µg/mL (≈ 3.02 µM); MIC [19]: 2 µg/mL (≈ 6.04 µM); MIC [23]: 1 µg/mL (≈ 3.02 µM); MIC [24]: > 32 µg/mL; MIC [25]: 32 µg/mL (≈ 96.6 µM); MIC [27]: 1 µg/mL (≈ 3.02 µM); MIC [37]: > 32 µg/mL; MIC [28]: 1 µg/mL (≈ 3.02 µM); MIC [30]: 4 µg/mL (≈ 12.1 µM); MIC [32]: 2 µg/mL (≈ 6.04 µM); MIC [33]: > 32 µg/mL

Reference: ChEMBL document CHEMBL1629559, “Real-time PCR detection of gyrA and parC mutations in Streptococcus pneumoniae” (2008)
